In a melting point compilation (Tetko et al.; mined from patent text by program, amines drawn as free bases though some values may be those of a salt):

Compound | melting point [°C]
CC(C)(C)OC(=O)NC(Cc1ccccc1)C(=O)NC(Cc1ccc(C(F)(F)F)cc1)C(O)c1ccc(F)cc1 (mixture of isomers) | 230 to 231
CCCC1=C(C(=O)OCC)C(c2ccccc2Cl)c2cn(C(=O)OC)nc2N1 (configuration not stated) | 141 to 143
CCOC(=O)C1=C(COCC(C)N=[N+]=[N-])NC(C)=C(C(=O)OC)C1 (configuration not stated) | 115
O=C1Nc2ccc(Cl)cc2C(OCc2ccccn2)(C(F)(F)F)CN1C1CC1 (configuration not stated) | 170 to 172
CCC1=NN=C(c2ccc(OC)c(OC)c2)c2cc(OC)c(OC)cc2C1CC (configuration not stated) | 142 to 144
CCc1c(-c2cc(C)c(OC)c(C)c2)[nH]c2ccccc12 | 126 to 127
Cc1cc(OCCCC(C)(C)C(=O)O)c(C)c(C)c1OCc1ccccc1 | 105 to 107
Fc1cc(-c2nc3ccccc3o2)ccc1CBr | 150 to 152
N#Cc1ccc2c(c1)C(c1ccccc1F)=NCC(OP(=O)(N1CCOCC1)N1CCOCC1)=N2 | 194 to 197
OCCCOc1ccc(Cl)c(Cl)c1 | 40 to 43
CNc1ccccc1C(=O)N1Cc2ccccc2C(=O)N1 | 199 to 202
COC(=O)C1=C(C)Nc2cc[nH]c(=O)c2C1c1ccccc1C(F)(F)F (configuration not stated) | 295
COc1ccc2c(c1)c(C(C)C(=O)O)cc(=O)n2-c1ccc(Cl)cc1 (configuration not stated) | 177 to 178
CCOC(=O)N(CC(=O)O)C(=O)c1c(Cl)ccc2c(C(F)(F)F)c(OC)ccc12 | 144 to 146
CCCCCCCCc1ccc(N(c2ccc(CCCCCCCC)cc2)C2(c3ccc(N(CC)CC)cc3)OC(=O)c3nccnc32)cc1 (configuration not stated) | 180 to 181
Cc1cccc(C2(C(N)=S)CCCS2)n1 (configuration not stated) | 171
O=Cc1cc2c(cc1O)CCO2 | 102 to 104
Cc1c(-c2ccccc2)oc2c(OCCN=[N+]=[N-])cccc2c1=O | 119 to 120
N#CN=C1NCCN1CC#CCNC(=O)C(O)(c1ccccc1)C1CCCCC1 (configuration not stated) | 207 to 210
COCCc1nc2c(N)nc3ccccc3c2n1CCOCCN(C)S(C)(=O)=O | 145 to 146
CC(=O)NC1(c2ccc(C(C)O)cc2)CC1 (configuration not stated) | 114 to 116
CS(=O)(=O)Oc1ccccc1CC(=O)O | 110
CC(N1CCN(c2nnn(Cc3ccc(C(C)(C)C)cc3)n2)CC1)C(O)(Cn1cncn1)c1ccc(F)cc1F (configuration not stated) | 99 to 101
N#Cc1cc(Br)cc(-c2ccsc2)c1 | 62 to 63
COc1ccc(C(=O)Nc2c(C)c(C)c3c(c2C)C(c2ccc(C)cc2)C(C)(C)O3)cc1 (configuration not stated) | 161 to 163
CC(OCCc1ccc([N+](=O)[O-])cc1)OC1C(O)C(CO)OC1n1ccc(=O)[nH]c1=O (configuration not stated) | 162

Compound | melting point [°C]
CSC(=S)N1CCN(Cc2ccccc2O)CC1 | 147
COc1cccc(CCCc2c(CC#N)ccc(OC)c2OC)c1 | 78 to 79
c1ccc2c(c1)CCN(c1ccncc1)C2 | 95 to 96
C=C(C1=C(CCC(=O)OC)C(=O)CC1O)c1ccccc1 (configuration not stated) | 80
CC(C)(C)c1cc(C(=O)O)c(Cl)c(C(=O)O)c1 | 250
COc1nc2cc(Cl)c(Cl)c([N+](=O)[O-])c2nc1OC | 184 to 186
O=C(CCCBr)Nc1ccc(O)cc1 | 142 to 144
O=C(NC1CCNC1)C12CC3CC(CC(C3)C1)C2 (configuration not stated) | 186 to 188
CCCCCCCCCCCCCCCCCCOc1cc(OCCCCCc2cccc(O)c2O)cc(N(CC(=O)O)CC(=O)O)c1 | 129 to 131
CCCCOc1ccc(S(=O)(=O)C2(C(=O)NO)CCN(Cc3ccncc3)CC2)cc1 | 118
CCOC(=O)c1c(NCCc2ccccc2)n[nH]c1C | 138 to 139
NC(=O)c1ccccc1-c1cc([N+](=O)[O-])ccc1-c1ccc([N+](=O)[O-])cc1 | 242 to 244
CC(C)S(=O)(=O)C(C#N)=Cc1c(Cl)n(C)c2ccccc12 | 141
COc1ccc(-c2ccc(Cl)cc2)cc1COCCc1cccc(NS(=O)(=O)C(F)(F)F)c1 | 99 to 101
COc1cccc2c(CCNC3COc4c(F)ccc(C(N)=O)c4C3)coc12 (configuration not stated) | 172 to 174
CSc1ccc(C=C2C(C)=C(CC(=O)O)c3cc(F)ccc32)cc1 | 187 to 188
c1ccc(Cc2n[nH]c(NCCCCOc3cccc(CN4CCCCC4)c3)n2)cc1 | 145 to 146
O=C(O)c1cc2cc(C(=O)c3cccs3)c(Cl)c(Cl)c2o1 | 243 to 245
C=CN1CC/C(=C\C)C1=O | 59 to 61
CS(=O)(=O)c1ccc(C(CC2CCCC2)c2nc(Br)c(C(=O)C3CC3)[nH]2)cc1 (configuration not stated) | 160 to 161
O=C(NCc1ccccn1)Nc1cc(N2CC(COc3ccccc3)OC2=O)ccn1 (configuration not stated) | 155 to 156
C#Cc1ccc(NC=C(C(=O)NCCC)C(=O)c2ccccc2Cl)cc1 | 95 to 96
OCCOc1ccc(Oc2ccc(F)cc2)cc1 | 74 to 76
CCOCc1nc2c(N)nc(C)c(C)c2n1CCCCS(=O)(=O)N(C)C | 158 to 160
Nc1ccc2sc3ccc(F)cc3c2c1 | 131 to 132
NS(=O)(=O)c1ccc(-c2noc(-c3cnn4c(C5CC5)cc(-c5ccc(Cl)cc5)nc34)n2)s1 | 294

Compound | melting point [°C]
O=C(c1cc(=O)c2cc(O)ccc2[nH]1)N1CCC(Oc2ccccc2)CC1 | 270
COC(=O)C(C)(C)c1ccc(C(=O)CCCCl)cc1 | 175 to 181
Cn1c([N+](=O)[O-])cnc1COc1ccc(C(F)(F)F)cc1[N+](=O)[O-] | 126
Nc1ccc(F)c(C(=O)Nc2ccccc2)c1 | 120 to 122
CCN1C(=O)C(C)(C)C(=O)N(C)c2cc(CN(CCn3ccc4sccc4c3=O)Cc3cccnc3COC)ccc21 | 119 to 122
CCOC(=O)c1cnc(CC)nc1NCc1ccc(-c2ccccc2-c2nnn[nH]2)cc1 | 114 to 116
CCCCCCCCCCCCc1nnn(C(C(=O)Nc2c(OC)cc(OC)cc2OC)c2ccccc2)n1 (configuration not stated) | 141 to 145
CC1CCCN1CCN1C=c2ccc(=c3ccc4c(c3)CCN(C)C=4)cc2CC1 (configuration not stated) | > 270
CCCc1nc2c(N)nc3cc(OCCOCCNC(=O)OC(C)(C)C)ccc3c2s1 | 111 to 113
NC(=O)C1=CCCc2cc(Sc3cccc(F)c3)cc(F)c21 | 213 to 214
O=C(O)CSC(F)(F)F | 130
CC(C)(C)c1ccc(/C=C/C(=O)Nc2ccc3c(ccn3CCO)c2)cc1 | 182
Cc1cccc(-c2nc3cccnn3c2-c2ccnc(Nc3ccccc3C)c2)c1 | 208 to 209
COC(=O)c1cccn1CC(I)=C(I)I | 88 to 90
O=C1CCC(N2Cc3c(OCc4ccc5nccn5c4)cccc3C2=O)C(=O)N1 (configuration not stated) | 270 to 272
COc1ccc(-c2cc3ccccc3[nH]2)cc1NCc1ccc([N+](=O)[O-])c(O)c1 | 134 to 135
O=C1Nc2cccc(Br)c2C(=O)N2CCC[C@@H]12 | 221 to 224
CC(C(=O)O)c1ccc(-c2ccccc2F)c(O)c1 (configuration not stated) | 110 to 111
Cc1occc(=O)c1OC(=O)c1ccccc1 | 106 to 110
N#CCCSc1ccc(Cl)cc1 | 53 to 54
CCOc1ccccc1-c1nc2c(C)cccc2c(=O)[nH]1 | 177 to 180
COc1ccc(O)c(NS(C)(=O)=O)c1 | 135 to 136
CCCC(=O)N[C@H]1CC[C@H](CCN2CCN(c3nccc4c3CCO4)CC2)CC1 | 191
O=c1cc(-c2cccc(Cl)c2)c2cc(Br)ccc2[nH]1 | 105
OC(CC1CCN(CC2CC2)CC1)(c1ccc(F)cc1)c1ccc(F)cc1 | 119 to 121
CC(=O)Nc1ncc(S(=O)(=O)NC(C)(C)CO)s1 | 206

Compound | melting point [°C]
COc1cc(C(O)C(Cl)(Cl)Cl)cc(OC)c1O (configuration not stated) | 160 to 162
CCOC(=O)Cc1ccc(C(=O)c2ccc(C#N)cc2)n1C | 117 to 120
COc1cccc(/C=C/C(=O)/C=C/C(=O)O)c1 | 158 to 160
CCOC(=O)C1(C)CN(Cc2ccccc2)C(=O)C(=C2SC=CS2)C1=O (configuration not stated) | 111 to 113
CCCCCCCCCCCCCCCCCC(=O)Oc1cc(OC)cc(OC)c1C(=O)C=Cc1ccc(OC)cc1 | 65 to 66
Nc1cc(C=C2OC(=O)c3ccccc32)ccc1Cl | 148 to 153
Cc1cc(C)n(-c2nccc(Nc3ccc(Cl)cc3)n2)n1 | 136 to 140
Clc1ccc2nncc(Cl)c2c1 | 111 to 113
CSC(=NC#N)NCCSc1ncccc1C(=O)c1ccccc1 | 180 to 181
CSc1nc(-c2cccnc2)c(-c2ccccc2)n1C | 123 to 127
CCOCc1nc2c(N)nc3cc(-c4cccnc4)ccc3c2n1CCN1CCNCC1 | 208 to 211
CCc1c(N)c(C(N)=O)nn1Cc1cccnn1 | 177 to 185
O=C1CCC2(CCCc3ccccc32)CC1 | 109 to 111
CCOc1cc(Oc2ccc(C(F)(F)F)cn2)ccc1CCCOc1nn(CC)cc1CC(=O)O | 82 to 83
CCOC(=O)c1ccc(OCCc2c(CCNS(=O)(=O)Cc3ccc(Cl)c(Cl)c3)n(C(c3ccccc3)c3ccccc3)c3ccc(Cl)cc23)cc1F | 83 to 85
CCn1nc(C)c2c1C(=NC#N)NCC(c1ccc(O)cc1)=N2 | 300
CCc1cccc(C(O)CC)c1NC(=O)CC1c2ccccc2Oc2ccccc21 (configuration not stated) | 167 to 168
CCCC1=C(C#N)C(c2ccccc2Cl)c2c(n[nH]c2-c2cccc3ccccc23)N1 (configuration not stated) | 254
CCOC(=O)c1ccc(Cc2ccc3c(c2)OCO3)o1 | 67 to 68
O=C1C(c2nc3c(cc2O)OCO3)c2ccccc2N1Cc1ccc(C(F)(F)F)o1 (configuration not stated) | 161 to 163
COC(=O)c1cc(-c2ccc(OC)c(Cl)c2)nn(CC2CC2)c1=O | 101 to 104
Clc1ccc2c(NCC=CCNc3ccnc4cc(Cl)ccc34)ccnc2c1 | > 250
COC1CC2(C)C(CCC3C4CC(C)C(C(C)=O)C4(C)CC(=O)C32)CC1O (configuration not stated) | 180 to 182
O=C(O)C1CSC(C2CC3C=CC2C3)N1 (mixture of isomers) | 220
